According to patent US7488718B2, “Synthetic HLA binding peptide analogues and uses thereof” (Sloan Kettering Institue for Cancer Research, priority 2003, dated 2009):
Residues, ends and D or L forms follow the SMILES beside them.

Columns and labels:
[1] = tested on: HLA matched chronic myelogenous leukemia cell lines or CML blasts; conditions: T cells generated with analogue peptide
Experimental: Supernatant fluids were harvested and radioactivity was measured in a gamma counter. Percent specific lysis was determined from the following formula: 100×[(experimental release minus spontaneous release)/(maximum release minus spontaneous release)].

CD8+ T cells = test: Gamma interferon ELISPOT, CD8+ T cells after in vitro peptide stimulation; format: cell-based, human; conditions: healthy HLA A0201 donors, peptide-pulsed T2 targets
[2] = target: T1, HLA-A0201 molecules on T2 cells (Homo sapiens, UniProt P04439, D140Y/D185E/D98H/E176V/E277Q/G131W/G231S/I119V/I121R/I166T/I218V/L300P/L318F/N151K/N90K/P208A/P217A/Q86G/Q94H/R138H/R169H/T345S); test: T2 assay for peptide binding to HLA A0201; conditions: for binding to HLA A0201 molecules in T2 assay: bcr-abl b3a2 and b2a2 peptides
T1 construct: increase in the level of surface HLA-A0201 recognizable by specific mAb such as BB7.2; endogenous in cells; host or cells: T2 cells (human, TAP-deficient, HLA-A0201+)
Experimental: T2 cells (TAP−, HLA-A0201 +) were incubated overnight at 27° C. at 1×10E6 cells/ml in FCS-free RPMI medium supplemented with 5 μg/ml human β2 m (Sigma, St Louis, Mo.) in the absence, i.e., negative control, or presence of either a positive reference tyrosinase peptide or test peptides at various final concentrations of 50, 10, 1, and 0.1 μg/ml. Following a 4 h incubation with 5 μg/ml brefeldin A (Sigma), T2 cells were labeled for 30 min at 4° C. with a saturating concentration of anti-HLA-A2.1 (BB7.2) mAb, then washed twice. The cells then were incubated for 30 min at 4° C. with a saturating concentration of FITC-conjugated goat IgG F(ab′)2 anti-mouse Ig (Caltag, South San Francisco, Calif.), washed twice, fixed in PBS/1% paraformaldehyde and analyzed using a FACS Calibur cytofluorometer (Becton Dickinson, Immunocytometry systems, San Jose, Calif.).
The mean intensity of fluorescence (MIF) observed for each peptide concentration, after subtraction of the MIF observed without peptide, was used as an estimate of peptide binding. Stabilization assays were performed similarly. Following initial evaluation of peptide binding at time 0, cells were washed in RPMI complete medium to remove free peptides and incubated in the continuous presence of 0.5 μg/ml brefeldin-A for 2, 4, 6, and 8 hours. The amount of stable peptide-HLA-A2.1 complexes was estimated as described above by indirect immunofluorescence analysis. The half time of complexes is an estimate of the time required for a 50% reduction of the time 0 mean intensity of fluorescence value.
The immunogenicity of MHC class I-restricted peptides requires the capacity to bind and stabilize MHC class I molecules on the live cell surface. Moreover the computer prediction models above have only 60-80% predictive accuracy. Direct measurement of the strength of the interaction between the peptides and the HLA-A0201 molecule was made using a conventional binding and stabilization assay that uses the antigen-transporting deficient (TAP2-) HLA-A0201 human T2 cells. T2 cells lack TAP function and consequently are defective in properly loading class I molecules with antigenic peptides generated in the cytosol. The association of exogenously added peptides with thermolabile, empty HLA-A2 molecules stabilizes them and results in an increase in the level of surface HLA-A0201 recognizable by specific mAb such as BB7.2.

CD3+ T cells = test: Gamma interferon ELISPOT, CD3+ T cells after in vitro peptide stimulation; format: cell-based, human; conditions: healthy HLA A0201 donors
HLA A0201 = HLA A0201 (Homo sapiens, UniProt P04439, D140Y/D185E/D98H/E176V/E277Q/G131W/G231S/I119V/I121R/I166T/I218V/L300P/L318F/N151K/N90K/P208A/P217A/Q86G/Q94H/R138H/R169H/T345S); test: BIMAS predicted binding score for HLA A0201; conditions: p210F versus native CMLA2
Experimental: The synthetic peptide analogue segments are designed by making one or two amino acid substitutions in anchor or auxiliary residues. Although the native peptides particularly described herein are nonamers encompassing the anchor or auxiliary residues, analogues may be designed having about 70% to about 130% of the amino acids in the native peptide. In the instant invention the synthetic peptide analogues may have about 8-12 amino acids. Such substitutions are determined by a bioinformatic model system (BIMAS) which uses a matrix approach to predict binding and ranks the peptides based on predicted binding to the HLA molecule. The amino acid sequences and predicted score for binding to HLA A0201 and HLA A0301 are generated by online software BIMAS available at http://bimas.dcrt.nih.gov/cgi-bin/molbio/ken parker comboform and […] available at http://syfpeithi.bmi-heidelberg.com/.
Based on this information and by using the software of the Bioinformatics & Molecular Analysis Section (National Institutes of Health, Washington, D.C.) available at http://bimas.dcrt.nih.gov/cgi-bin/molbio/ken parker comboform. This software ranks 9-mer or 10-mer peptides on a predicted half-time dissociation coefficient from HLA class I molecules (Pinilla, et al. Curr Opin Immunol, 11(2): p. 193-202 (1999)). […]

## CC[C@H](C)[C@H](NC(=O)[C@H](CC(C)C)NC(=O)[C@@H](N)Cc1ccc(O)cc1)C(=O)N[C@@H](CC(N)=O)C(=O)N[C@@H](CCCCN)C(=O)N[C@@H](CCC(=O)O)C(=O)N[C@@H](CCC(=O)O)C(=O)N[C@@H](C)C(=O)N[C@@H](CC(C)C)C(=O)O [b3a2 A3, YLINKEEAL] (H-YLINKEEAL-OH; N-terminus and C-terminus assumed)
[1]
  cytotoxicity against CML cells expressing b3a2 or b2a2: Significant cytotoxicity was generated

## CC(C)C[C@H](NC(=O)[C@H](CC(C)C)NC(=O)[C@@H](N)CCCCN)C(=O)N[C@@H](CCC(N)=O)C(=O)N[C@@H](CCCNC(=N)N)C(=O)N1CCC[C@H]1C(=O)N[C@H](C(=O)N[C@@H](C)C(=O)N[C@H](C(=O)O)C(C)C)C(C)C [p210C] (H-KLLQRPVAV-OH; N-terminus and C-terminus assumed)
[1]
  cytotoxicity against CML cells expressing b3a2 or b2a2: Significant cytotoxicity was generated

## KLSSKALQV (analogue peptide p210B)
CD8+ T cells
  immune response, IFN gamma secretion: No immune response could be generated

## KQSSKALQV (analogue peptide p210A)
CD8+ T cells
  immune response, IFN gamma secretion: No immune response could be generated

## SSKALQRPV (native peptide CMLA2) [reference compound]
[2]
  binding to HLA A0201 molecules in T2 assay: weak binder
[2]; listed as CML A2
  binding to HLA A0201 molecules in T2 assay: natural weak binder

## TLFKQSSKV (analogue peptide p210D)
CD8+ T cells
  immune response, IFN gamma secretion: produced an immune response in some of the donors tested

## YLFKQSSKV (analogue peptide p210E)
CD8+ T cells
  immune response, IFN gamma secretion: produced an immune response in some of the donors tested

## YLGATLKGV (analogue peptide WT-1 D1)
[2]; WT-1 peptides
  binding to HLA A0201, thermostabilization on T2: significantly higher level of binding to HLA-A0201 over WT1-D

## YLINKEEAV (analogue peptide b3a2 A4)
CD3+ T cells
  immune response, gamma interferon secretion: generated an immune response in two healthy donors

## YLINKVEAL (analogue peptide b3a2 A5)
CD3+ T cells
  immune response, gamma interferon secretion: generated an immune response in two healthy donors

## YLKALQRPV (analogue peptide p210F)
CD8+ T cells
  immune response, IFN gamma secretion: generated a more consistent and higher immune-responses
[2]
  binding to HLA A0201 molecules in T2 assay: excellent avidity for HLA A0201 molecules
HLA A0201
  BIMAS prediction improvement: 700 fold
